Assay results: patent publication US20140378541A1, “Synthetic Epigallocatechin Gallate (EGCG) Analogs” (WAYNE STATE UNIVERSITY, priority 2011, published 2014)
Positions count from the first letter of the chain named. Read-outs that look alike come from different tables or passages of the source. Each block holds one compound with its values, some of them ahead of it.

Columns and labels:
[1] = molecular target: T1, purified rabbit 20S proteasome (Oryctolagus cuniculus, UniProt G1T4Q9); test: Inhibition of chymotrypsin-like activity of purified 20S proteasome; format: biochemical; conditions: for proteasomal inhibition (in words): purified 20S proteasome, concentration not stated; for inhibition of proteasomal chymotryptic activity (in words): even at a concentration of 50 μM
T1 sequence (G1T4Q9 60-263): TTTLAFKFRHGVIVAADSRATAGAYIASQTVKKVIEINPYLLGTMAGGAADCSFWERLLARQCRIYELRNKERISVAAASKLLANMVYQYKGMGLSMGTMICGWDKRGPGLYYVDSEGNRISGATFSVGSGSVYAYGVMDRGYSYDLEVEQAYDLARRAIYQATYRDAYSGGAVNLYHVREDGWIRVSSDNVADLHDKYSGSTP
Description: Purified 20S proteasome was incubated with compound 5, 7, 16, or 21 (A) or MDA-MB-231 cell extract (5.7 μg) was incubated with compound 6, 8, 17, or 22 (B) at indicated concentrations for 2 hours, followed by measuring the proteasomal chymotrypsin-like activity. EGCG was used as a comparative standard.
Purified rabbit 20S proteasome and fluorogenic substrate Suc-LLVY-AMC for the proteasomal chymotrypsin like (CT-like) activity were obtained from Calbiochem Inc. (San Diego, Calif.). Fetal bovine serum (FBS) was from Tissue Culture Biologicals (Tulare, Calif.). Penicillin and streptomycin were purchased from Invitrogen Co. (Carlsbad, Calif.). RPMI 1640 medium was purchased from Invitrogen Co. (Carlsbad, Calif.). MTT (3-4,5-dimethylthiazol-2-yl-2.5-diphenyl-tetrazolium bromide) was purchased from Sigma-Aldrich.
A purified rabbit 20S proteasome (35 ng) was incubated with 20 μM of substrate Suc-LLVY-AMC in 100 μl assay buffer (20 mM Tris-HCl, pH 7.5), in the presence of EGCG or EGCG analogs at different concentrations or the solvent for 2 h at 37° C., followed by measurement of hydrolysis of the fluorogenic substrates using a Wallac Victor3™ multi-label counter with 355-nm excitation and 460-nm emission wavelengths.

AMPK signaling = test: AMPK activation, Western blot, MDA-MB-231 cells; format: cell-based, human; conditions: 20 μM, 3 h; metformin 10 mM as comparison
Description: In FIG. 9A, human breast cancer MDA-MB-231 cells were treated with 20 μM of EGCG, Pro-EGCG and EGCG analogs (compounds 5, 7, 23, 30 and 31), or 10 mM of metformin for 3 hrs. Cell lysates were analyzed by Western blot using antibodies of anti-AMPK, p-AMPK, PARP, p-EGFR, EGFR or β-actin. In FIG. 9B, human breast cancer MDA-MB-231 cells were treated with 20 μM of EGCG analogs 23 and 30, 10 nM of docetaxel alone, or combined treatment with compounds 23 and 30 plus docetaxel for 24 hrs. Cell lysates were analyzed by Western blot using antibodies of anti-AMPK, p-AMPK, PARP, p-EGFR, EGFR or β-actin. In FIG. 9C, cells were incubated in medium (0.1% BSA without FBS) containing 20 μM of 23, 30, 2.5 μM of Erlotinib (Eb) alone or the combinations as indicated for 24 hrs. Cell lyses were analyzed by Western blot using antibodies of anti-AMPK, p-AMPK, PARP, p-EGFR, EGFR or β-actin.
(§1) (A) EGCG analogs 23 and 30 inhibited breast cancer cell proliferation. MDA-MB-231 cells were treated with indicated concentrations of 23, 30 or metformin for 24 h, followed by a MTT assay. *, P<0.1; **, P<0.01. Columns, mean of three experiments; bars, SD. (B) EGCG analogs 23 and 30 activated AMPK at a dose-dependent manner, measured by elevated level of phosphor-AMPKα and its downstream proteins of phosphor-Raptor. […] MDA-MB-231 cells were treated with indicated concentrations of 23 or 30 for 3 h, followed by Western blot analysis with the indicated antibodies. The numbers underneath the Western results of p-AMPKα indicated normalized phosphor-AMPKα/β-actin ratios. […]
A whole cell extract was prepared from the treated cells as described by Landis-Piwowar et al. Cancer Res. (2007) 67, 4303, Chen et al. Cancer Res. (2007) 67, 1636, and Chen et al. Biochem. Pharm. (2005) 69, 1421. Cell extracts (30 μg) were separated by an SDS-PAGE gel and transferred to nitrocellulose membranes. The membrances were blotted by specific antibodies including anti-AMPK, p-AMPK, EGFR, p-EGFR (Cell Signaling Tech., Danvers, Mass.), PARP (Enzo Life Sciences, Plymouth Meeting, Pa.), actin (Santa Cruz Biotechnology, Santa Cruz, Calif.). The membranes were visualized by enhanced chemiluminescence, as described previously by Landis-Piwowar et al. Cancer Res. (2007) 67, 4303, Chen et al. Cancer Res. (2007) 67, 1636, and Chen et al. Biochem. Pharm. (2005) 69, 1421.
The Western blot analysis was performed as follows: A whole cell extract was prepared from the treated cells as described previously (Landis-Piwowar et al., Cancer research, 2007, 67: 4303-4310; Chen et al., Cancer research, 2007, 67: 1636-1644; Chen et al., Biochemical pharmacology, 2005, 69: 1421-1432). The cell extracts (30 μg) were then separated by an SDS-PAGE gel and transferred to nitrocellulose membranes. The membrances were blotted by specific antibodies including anti-AMPK, p-AMPK, EGFR, p-EGFR (Cell Signaling Tech. Danvers, Mass.), PARP (Enzo Life Sciences, Plymouth Meeting, Pa.), actin (Santa Cruz Biotechnology, Santa Cruz, Calif.). The membranes were visualized by enhanced chemiluminescence, as described previously (Landis-Piwowar et al., Cancer research, 2007, 67: 4303-4310; Chen et al., Cancer research, 2007, 67: 1636-1644; Chen et al., Biochemical pharmacology, 2005, 69: 1421-1432).
In FIG. 9A, human breast cancer MDA-MB-231 cells were treated with 20 μM of EGCG, Pro-EGCG and other EGCG analogs (compounds 5, 7, 23, 30 and 31), or 10 mM of metformin for 3 hrs. Cell lysates were analyzed by Western blot using antibodies of anti-AMPK, p-AMPK, PARP, p-EGFR, EGFR or β-actin. In FIG. 9B, human breast cancer MDA-MB-231 cells were treated with 20 μM of EGCG analogs 23 and 30, 10 nM of docetaxel alone, or combined treatment with compounds 23 and 30 plus docetaxel for 24 hrs.

[2] = test system: Human breast cancer MDA-MB-231 cells; test: MTT cell proliferation assay in MDA-MB-231 cells; format: cell-based; conditions: 24 h; for inhibition at 50 µM: Homo sapiens, MDA-MB-231
Description: Human breast cancer MDA-MB-231 cells were treated with 25 or 50 μM EGCG analogs for 24 hours, followed by MTT assay. Pro-EGCG was used as a comparison.
Human breast cancer MDA-MB-231 cells with high COMT activity were treated with 50 μM EGCG analogs for 24 hours in the absence or presence of 10 μM DNC, followed by MTT assay. Pro-EGCG was used as a comparison.
as §1
(§2) Cells were grown in a 96-well plate. Triplicate wells of cells were treated with indicated concentrations of EGCG or EGCG analogs for 24 h. After aspiration of medium, MTT (1 mg/ml) was then added to the cell cultures, followed by incubation for 3 h at 37° C. After cells were crystallized, MTT was removed and DMSO was added to dissolve the metabolized MTT product. The absorbance was then measured on a Wallac Victor3 1420 Multi-label counter at 540 nm.

[3] = molecular target: T2, proteasomal chymotrypsin-like activity of MDA-MB-231 cell extracts (Homo sapiens, UniProt P28074); test: Proteasomal chymotrypsin-like activity in MDA-MB-231 cell lysate with high COMT activity; format: biochemical; conditions: concentrations ranging between 1-10 μM, 2 h
T2 construct: endogenous in cells; host or cells: MDA-MB-231 human breast cancer cells (ATCC), cell extract
T2 sequence (P28074 60-263): T1 sequence (G1T4Q9 60-263) with D197E
Description: (A) MDA-MB-231 cell extracts (5.7 μg) were incubated with different concentrations of compound 5 or 7 or EGCG for 2 hours, followed by performance of proteasomal chymotrypsin-like activity assay. EGCG was used as a control. (B) MDA-MB-231 cell extracts (5.7 μg) were pre-treated with 10 μM DNC for 20 minutes, followed by co-incubation with compound 5, or 7 or EGCG for 2 h. The proteasomal chymotrypsin-like activity was measured.
Human breast cancer MDA-MB-231 cell lysate that contains high COMT activity were treated with varying concentrations of compound 5 or 7. […] Thus, consistent with previous reports EGCG is also susceptible to methylation by COMT (H., Lu, X. Meng, C. S. Yang, Drug Metabolism and Disposition; 31; 572, 2003).

[4] = test system: human multiple myeloma ARP cells; test: MTT assay in multiple myeloma ARP cells, alone or with Velcade; format: cell-based; conditions: 48 h; for effect on cell proliferation when combined with Velcade: 20 μM plus varying doses of Velcade
Description: The cells were treated with Velcade™ alone or with 20 μM of compounds 5, 7 and 23 or in combination with varying doses of Velcade™ for 48 hrs, followed by a MTT assay.
Human multiple myeloma cells (Arp and Opm1) cells, kindly provided by Dr. Ramesh Batchu (Wayne State University), were grown in RPMI-1640 medium supplemented with 10% FBS, 100 units/ml of penicillin, and 100 μg/ml of streptomycin. Cells were maintained at 37° C. in 5% CO2 (Mujtaba T, et al., Int J Mol Med. (2012) 29(1):102-6).
as §2

MDA-MB-231 cells = test: Mammosphere formation assay; format: cell-based; conditions: Homo sapiens, MDA-MB-231, 168 h, 7 days
Description: MDA-MB-231 cells were seeded in low attached 6-well plates (1000 cells/well) and treated with indicated concentrations of 23 and 30 for 7 days, followed by calculating numbers of mammosphere (A) and taking photos of mammosphere morphology (B). Metformin and EGCG were served as control. *, P<0.1; **, P<0.01. Columns, mean of three experiments; bars, SD.
Mammosphere formation assay was performed to assess the capacity of cancer stem cell self-renewal. Single cell suspensions of MDA-MB-231 cells were thoroughly suspended and plated on ultra low adherent wells of 6-well plates (Corning, Lowell, Mass.) at 1000 cells/well in 1.5 ml of sphere formation medium (1:1 DMEM/F12 medium supplemented with 50 units/ml penicillin, […] streptomycin, B-27 and N-2). One milliliter of sphere formation medium was added every 3-4 days. After 7 days of incubation with different concentrations of EGCG analogs 23, 30 or metformin, the formed spheres were collected by centrifugation at 300 g for 5 min and counted with an inverted phase-contrast Zeiss Axiovert 25 microscope.

[5] = test system: human multiple myeloma OPM1 cells; test: MTT assay in multiple myeloma OPM1 cells, alone or with Velcade; format: cell-based; conditions: 48 h

- proteasomal inhibition (in words) [1]: none
SMILES: CC(=O)Oc1cc(OC(C)=O)cc(C(=O)O[C@H]2Cc3ccccc3C[C@H]2OC(C)=O)c1 [Compound 22]

- proteasomal inhibition (in words) [1]: none
SMILES: CC(=O)Oc1cc(OC(C)=O)c2c(c1)O[C@H](c1cc(OC(C)=O)c(OC(C)=O)c(OC(C)=O)c1)[C@H](OC(=O)c1cc(OC(C)=O)c(OC(C)=O)c(OC(C)=O)c1)C2 [Compound 4, (−)-Epigallocatechin gallate octa-acetate]
- AMPK activation (p-AMPK) (AMPK signaling): can activate AMPK signaling
- inhibition in MDA-MB-231 cells growth ([2]; 25 to 50 μM, MTT): 0 to 32%
- inhibition at 50 µM ([2]; absence of DNC, read-out: inhibition of cell proliferation, compound alone): 42%
- inhibition at 50 µM ([2]; plus 10 μM DNC (COMT inhibitor), read-out: inhibition of cell proliferation in the presence of DNC): 89%

- inhibition of proteasomal chymotryptic activity (in words) [1]: not active
SMILES: O=C(O[C@H]1Cc2ccccc2C[C@H]1O)c1cc(O)cc(O)c1 [Compound 21]

- melting point: 136 to 138 °C
SMILES: O=C(O[C@H]1Cc2ccccc2C[C@H]1OC(=O)c1cc(F)cc(F)c1)c1cc(F)cc(F)c1 [Compound 34]

- melting point: 102 to 104 °C
SMILES: O=C(O[C@H]1Cc2ccccc2C[C@H]1OC(=O)c1ccc(F)c(F)c1)c1ccc(F)c(F)c1 [Compound 33]

- inhibition of proteasomal activity [3]: 10-16%
SMILES: O=C(O[C@H]1Cc2ccccc2C[C@H]1OC(=O)c1cc(O)c(O)c(O)c1)c1cc(O)c(O)c(O)c1 [Compound 5]
- effect on cell proliferation when combined with Velcade [4]: antagonized the inhibitory effect

SMILES: CN(C)C(=N)N=C(N)N [metformin, reference compound]
- inhibition at 5000 µM (MDA-MB-231 cells; 5 mM): 41.4%
- inhibition at 10000 µM (MDA-MB-231 cells; 10 mM): 67.6%

- inhibition of proteasomal activity [3]: 18-51%
SMILES: O=C(O[C@H]1Cc2ccccc2C[C@H]1OC(=O)c1cc(O)cc(O)c1)c1cc(O)cc(O)c1 [Compound 7]
- effect on cell proliferation when combined with Velcade [4]: synergistic inhibitory effect
- inhibition at 20 µM ([4]; Homo sapiens, ARP cells, 20 μM, read-out: inhibition of cell proliferation): ~60%

SMILES: CC(C)C[C@H](NC(=O)[C@H](Cc1ccccc1)NC(=O)c1cnccn1)B(O)O [Velcade™, bortezomib, reference compound]
- sensitivity of OPM1 cell line to treatment, versus ARP cells [5]: more resistant
- cell proliferation, Velcade alone ([4]; varying doses): reduced cell proliferation in a dose-dependent manner

- inhibition of proteasomal chymotryptic activity (in words) [1]: did not inhibit
SMILES: O=C(O[C@H]1Cc2ccccc2C[C@H]1O)c1cc(O)c(O)c(O)c1 [Compound 16]

- proteasomal inhibition (in words) [1]: none
SMILES: CC(=O)Oc1cc(C(=O)O[C@H]2Cc3ccccc3C[C@H]2OC(C)=O)cc(OC(C)=O)c1OC(C)=O [Compound 17]
